Reference: article PMC5564600 (Oncotarget, 2017)
Converted amounts (≈) assume the structure as drawn.

What was measured:
PI3Kα [1] = tested on: PI3Kα; parameters: method as in PMID 23726034, PMID 23275335; conditions: cited from earlier work
PI3Kγ = PI3Kγ (Homo sapiens, UniProt P48736); test: PI3K (human) HTRF assay, PI3Kγ; assay type: biochemical; conditions: ATP 10 μM, mean ± SEM
mTOR = mTOR (Homo sapiens, UniProt P42345); test: SelectScreen Z'LYTE kinase assay (Invitrogen), mTOR; assay type: biochemical; conditions: determined by Invitrogen, mean ± SEM, n=2
[2] = Plasma pharmacokinetics of SN32976 and stable major metabolites in mice (30 mg/kg oral); conditions: mouse plasma, 30 mg/kg SN32976 oral gavage
[3] = Metabolite identification in human liver microsomes; assay type: in vitro ADME; conditions: 10 μM SN32976, 60 min
Procedure: (§1) The reaction was quenched by mixing samples with acetonitrile and internal standard. […] Observation of parent compound and metabolites was achieved using electrospray ionization while performing a mass scan from 300-750 m/z. For observed peaks, the m/z was determined and product ion scans were carried out.

[4] = Metabolite identification in mouse liver microsomes; assay type: in vitro ADME; conditions: 10 μM SN32976, 60 min
Procedure: as §1

[5] = Metabolite identification in rat liver microsomes; assay type: in vitro ADME; conditions: 10 μM SN32976, 60 min
Procedure: as §1

[6] = Metabolite identification in dog liver microsomes; assay type: in vitro ADME; conditions: 10 μM SN32976, 60 min
Procedure: as §1

[7] = Metabolite identification in monkey liver microsomes; assay type: in vitro ADME, Cynomolgus monkey; conditions: 10 μM SN32976, 60 min
Procedure: as §1

PIK3C2B = molecular target: T1, PIK3C2B (Homo sapiens, UniProt O00750); test: KINOMEscan, PIK3C2B; assay type: binding; conditions: 10 μM
T1 construct: purchased Ambit Biosciences (scanMAXX KINOMEscan)

PIK3C2G = molecular target: T2, PIK3C2G (Homo sapiens, UniProt O75747); test: KINOMEscan, PIK3C2G; assay type: binding; conditions: 10 μM
T2 construct: purchased Ambit Biosciences (scanMAXX KINOMEscan)
T2 sequence (O75747 1-1486): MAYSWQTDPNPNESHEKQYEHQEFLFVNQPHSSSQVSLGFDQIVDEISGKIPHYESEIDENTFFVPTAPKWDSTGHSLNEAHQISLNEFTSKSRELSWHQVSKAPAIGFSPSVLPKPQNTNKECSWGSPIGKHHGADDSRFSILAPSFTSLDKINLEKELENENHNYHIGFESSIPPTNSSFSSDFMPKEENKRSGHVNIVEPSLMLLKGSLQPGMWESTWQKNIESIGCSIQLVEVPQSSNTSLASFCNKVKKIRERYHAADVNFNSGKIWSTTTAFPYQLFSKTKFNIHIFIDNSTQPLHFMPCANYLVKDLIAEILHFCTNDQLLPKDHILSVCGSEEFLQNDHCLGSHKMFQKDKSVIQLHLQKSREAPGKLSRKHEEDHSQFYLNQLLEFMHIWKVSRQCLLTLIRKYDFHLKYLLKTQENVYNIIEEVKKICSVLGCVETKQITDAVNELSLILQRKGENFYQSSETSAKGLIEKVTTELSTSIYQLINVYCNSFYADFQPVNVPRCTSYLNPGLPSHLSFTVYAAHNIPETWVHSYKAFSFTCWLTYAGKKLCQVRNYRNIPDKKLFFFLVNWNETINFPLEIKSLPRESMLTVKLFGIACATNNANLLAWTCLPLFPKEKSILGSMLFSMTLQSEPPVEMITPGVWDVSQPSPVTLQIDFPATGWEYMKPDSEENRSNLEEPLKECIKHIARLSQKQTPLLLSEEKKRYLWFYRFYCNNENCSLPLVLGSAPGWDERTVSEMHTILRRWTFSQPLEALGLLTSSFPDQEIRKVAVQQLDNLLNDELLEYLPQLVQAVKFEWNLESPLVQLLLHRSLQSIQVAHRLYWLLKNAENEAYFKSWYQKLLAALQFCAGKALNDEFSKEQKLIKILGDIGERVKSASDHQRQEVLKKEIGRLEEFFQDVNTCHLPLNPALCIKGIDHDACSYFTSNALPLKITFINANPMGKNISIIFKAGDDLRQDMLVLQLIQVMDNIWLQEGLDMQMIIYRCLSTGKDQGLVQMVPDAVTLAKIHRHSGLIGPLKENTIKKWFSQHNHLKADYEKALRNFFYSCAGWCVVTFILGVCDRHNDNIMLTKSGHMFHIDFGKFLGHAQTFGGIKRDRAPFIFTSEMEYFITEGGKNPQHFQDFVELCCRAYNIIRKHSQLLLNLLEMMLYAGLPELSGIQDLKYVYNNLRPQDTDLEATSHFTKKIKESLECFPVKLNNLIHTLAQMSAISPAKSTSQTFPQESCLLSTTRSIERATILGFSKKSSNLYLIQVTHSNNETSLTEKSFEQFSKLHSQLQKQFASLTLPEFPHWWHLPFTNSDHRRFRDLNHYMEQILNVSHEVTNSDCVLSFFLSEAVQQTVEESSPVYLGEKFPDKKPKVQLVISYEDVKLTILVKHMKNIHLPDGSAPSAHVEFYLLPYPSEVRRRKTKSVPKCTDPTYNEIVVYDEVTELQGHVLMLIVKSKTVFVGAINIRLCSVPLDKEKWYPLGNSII

[8] = Solubility in potassium phosphate buffer; assay type: physicochemical; conditions: aqueous buffer, thermodynamic from solid
CYP1A2 [9] = molecular target: T3, CYP1A2 (Homo sapiens, UniProt P05177); test: Cytochrome P450 inhibition in human liver microsomes, CYP1A2; assay type: in vitro ADME; conditions: read-out: CYP inhibition 1A2 IC50
T3 construct: was evaluated in human liver microsomes incubated with SN32976; tissue Cyprotex (contract research organization); host or cells: human liver microsomes

CYP2C9 = molecular target: T4, CYP2C9 (Homo sapiens, UniProt P11712); test: Cytochrome P450 inhibition in human liver microsomes, CYP2C9; assay type: in vitro ADME; conditions: mean ± SD, read-out: CYP inhibition 2C9 IC50
T4 construct: was evaluated in human liver microsomes incubated with SN32976; tissue Cyprotex (contract research organization); host or cells: human liver microsomes

CYP2C19 = molecular target: T5, CYP2C19 (Homo sapiens, UniProt P33261); test: Cytochrome P450 inhibition in human liver microsomes, CYP2C19; assay type: in vitro ADME; conditions: read-out: CYP inhibition 2C19 IC50
T5 construct: was evaluated in human liver microsomes incubated with SN32976; tissue Cyprotex (contract research organization); host or cells: human liver microsomes

CYP2D6 = molecular target: T6, CYP2D6 (Homo sapiens, UniProt P10635); test: Cytochrome P450 inhibition in human liver microsomes, CYP2D6; assay type: in vitro ADME; conditions: read-out: CYP inhibition 2D6 IC50
T6 construct: was evaluated in human liver microsomes incubated with SN32976; tissue Cyprotex (contract research organization); host or cells: human liver microsomes

CYP3A4 [10] = molecular target: T7, CYP3A4 (Homo sapiens, UniProt P08684); test: Cytochrome P450 inhibition in human liver microsomes, CYP3A4; assay type: in vitro ADME; conditions: read-out: CYP inhibition 3A4 IC50
T7 construct: was evaluated in human liver microsomes incubated with SN32976; tissue Cyprotex (contract research organization); host or cells: human liver microsomes

CYP1A2 [11] = test: Cytochrome P450 induction in cultured hepatocytes (mRNA, qRT-PCR), CYP1A2; assay type: in vitro ADME; conditions: at 10 μM, hepatocytes 72 h, mean ± SD
CYP2B6 = test: Cytochrome P450 induction in cultured hepatocytes (mRNA, qRT-PCR), CYP2B6; assay type: in vitro ADME; conditions: at 10 μM, hepatocytes 72 h, mean ± SD
CYP3A4 [12] = test: Cytochrome P450 induction in cultured hepatocytes (mRNA, qRT-PCR), CYP3A4; assay type: in vitro ADME; conditions: at 10 μM, hepatocytes 72 h, mean ± SD
[13] = Plasma pharmacokinetics in mice; conditions: male, CD1, mouse, po, 20 mg/kg
[14] = Plasma pharmacokinetics in rats; conditions: male, Sprague-Dawley, rat, po, 10 mg/kg
[15] = Plasma pharmacokinetics in dogs; conditions: male, Beagle, dog, po, 10 mg/kg
[16] = Rat dose proportionality study (oral); conditions: male, Sprague-Dawley, plasma
PI3Kα [17] = molecular target: PI3Kα (Homo sapiens, UniProt P42336); test: PI3K (human) HTRF assay, PI3Kα; assay type: biochemical
PI3Kβ = PI3Kβ (Homo sapiens, UniProt P42338); test: PI3K (human) HTRF assay, PI3Kβ; assay type: biochemical; conditions: ATP 10 μM, mean ± SEM
PI3Kδ = PI3Kδ (Homo sapiens, UniProt O00329); test: PI3K (human) HTRF assay, PI3Kδ; assay type: biochemical; conditions: ATP 10 μM, mean ± SEM
[18] = Tumor and plasma concentrations of SN32976 and major metabolites in mice with U-87 MG tumors after multiple doses; conditions: multiple doses of 100 mg/kg SN32976

PI3Kγ, sequence (P48736 whole entry): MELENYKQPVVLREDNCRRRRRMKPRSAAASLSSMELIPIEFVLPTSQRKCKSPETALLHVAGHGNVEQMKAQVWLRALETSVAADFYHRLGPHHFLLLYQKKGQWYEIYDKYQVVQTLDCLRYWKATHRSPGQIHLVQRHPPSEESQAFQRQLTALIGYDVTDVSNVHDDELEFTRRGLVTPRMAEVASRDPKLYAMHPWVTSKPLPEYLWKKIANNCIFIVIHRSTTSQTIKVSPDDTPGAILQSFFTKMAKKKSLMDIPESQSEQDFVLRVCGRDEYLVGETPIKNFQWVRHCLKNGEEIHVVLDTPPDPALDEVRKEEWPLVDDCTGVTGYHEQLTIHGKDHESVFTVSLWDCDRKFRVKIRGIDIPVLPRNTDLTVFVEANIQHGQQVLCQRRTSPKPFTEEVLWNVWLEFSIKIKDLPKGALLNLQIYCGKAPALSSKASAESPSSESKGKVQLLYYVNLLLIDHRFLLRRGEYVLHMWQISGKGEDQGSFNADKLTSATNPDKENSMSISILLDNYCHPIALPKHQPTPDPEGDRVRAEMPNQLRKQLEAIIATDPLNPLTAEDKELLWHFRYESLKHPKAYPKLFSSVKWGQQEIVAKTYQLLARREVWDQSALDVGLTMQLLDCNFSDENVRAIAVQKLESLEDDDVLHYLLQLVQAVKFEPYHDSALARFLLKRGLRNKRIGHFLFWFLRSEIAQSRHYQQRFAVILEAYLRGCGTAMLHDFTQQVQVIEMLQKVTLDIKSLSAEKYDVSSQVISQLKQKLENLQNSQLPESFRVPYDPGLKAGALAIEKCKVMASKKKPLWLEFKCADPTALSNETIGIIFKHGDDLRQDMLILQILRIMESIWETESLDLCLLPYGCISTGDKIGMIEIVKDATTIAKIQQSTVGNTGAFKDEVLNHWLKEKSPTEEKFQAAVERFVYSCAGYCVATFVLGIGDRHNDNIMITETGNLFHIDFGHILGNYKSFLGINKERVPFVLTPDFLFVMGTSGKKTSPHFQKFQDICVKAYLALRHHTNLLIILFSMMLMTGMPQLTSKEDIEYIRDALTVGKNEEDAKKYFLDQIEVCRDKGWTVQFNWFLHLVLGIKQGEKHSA
PI3Kα (Homo sapiens, UniProt P42336), sequence (P42336 whole entry): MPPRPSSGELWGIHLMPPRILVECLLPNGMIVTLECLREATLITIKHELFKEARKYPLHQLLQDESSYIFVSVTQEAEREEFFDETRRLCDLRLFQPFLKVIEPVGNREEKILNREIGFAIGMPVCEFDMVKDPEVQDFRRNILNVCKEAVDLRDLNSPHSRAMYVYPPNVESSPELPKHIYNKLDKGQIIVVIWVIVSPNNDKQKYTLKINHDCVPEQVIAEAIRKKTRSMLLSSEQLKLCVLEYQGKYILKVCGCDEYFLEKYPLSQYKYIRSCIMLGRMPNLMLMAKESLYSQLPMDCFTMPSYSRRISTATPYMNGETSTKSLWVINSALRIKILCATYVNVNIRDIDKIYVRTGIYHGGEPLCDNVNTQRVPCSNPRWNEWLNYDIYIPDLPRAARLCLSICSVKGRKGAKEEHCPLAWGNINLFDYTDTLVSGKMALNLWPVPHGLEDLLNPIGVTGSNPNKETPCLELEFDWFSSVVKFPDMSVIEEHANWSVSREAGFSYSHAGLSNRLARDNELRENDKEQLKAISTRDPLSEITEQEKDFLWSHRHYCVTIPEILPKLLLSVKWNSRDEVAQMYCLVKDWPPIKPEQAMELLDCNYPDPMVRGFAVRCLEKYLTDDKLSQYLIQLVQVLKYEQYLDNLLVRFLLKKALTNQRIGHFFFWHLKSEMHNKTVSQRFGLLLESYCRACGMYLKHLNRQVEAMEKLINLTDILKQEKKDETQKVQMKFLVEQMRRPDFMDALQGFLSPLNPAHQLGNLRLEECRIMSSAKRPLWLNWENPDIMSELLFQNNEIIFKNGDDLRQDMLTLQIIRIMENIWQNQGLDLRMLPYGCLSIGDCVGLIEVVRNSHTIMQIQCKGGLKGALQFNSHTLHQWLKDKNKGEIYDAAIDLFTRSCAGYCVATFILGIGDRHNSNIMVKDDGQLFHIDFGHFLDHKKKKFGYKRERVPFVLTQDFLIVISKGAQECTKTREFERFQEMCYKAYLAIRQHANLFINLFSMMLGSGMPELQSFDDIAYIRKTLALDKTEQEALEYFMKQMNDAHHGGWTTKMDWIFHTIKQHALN
PI3Kα (Homo sapiens, UniProt P42336), sequence (P27986 whole entry partner): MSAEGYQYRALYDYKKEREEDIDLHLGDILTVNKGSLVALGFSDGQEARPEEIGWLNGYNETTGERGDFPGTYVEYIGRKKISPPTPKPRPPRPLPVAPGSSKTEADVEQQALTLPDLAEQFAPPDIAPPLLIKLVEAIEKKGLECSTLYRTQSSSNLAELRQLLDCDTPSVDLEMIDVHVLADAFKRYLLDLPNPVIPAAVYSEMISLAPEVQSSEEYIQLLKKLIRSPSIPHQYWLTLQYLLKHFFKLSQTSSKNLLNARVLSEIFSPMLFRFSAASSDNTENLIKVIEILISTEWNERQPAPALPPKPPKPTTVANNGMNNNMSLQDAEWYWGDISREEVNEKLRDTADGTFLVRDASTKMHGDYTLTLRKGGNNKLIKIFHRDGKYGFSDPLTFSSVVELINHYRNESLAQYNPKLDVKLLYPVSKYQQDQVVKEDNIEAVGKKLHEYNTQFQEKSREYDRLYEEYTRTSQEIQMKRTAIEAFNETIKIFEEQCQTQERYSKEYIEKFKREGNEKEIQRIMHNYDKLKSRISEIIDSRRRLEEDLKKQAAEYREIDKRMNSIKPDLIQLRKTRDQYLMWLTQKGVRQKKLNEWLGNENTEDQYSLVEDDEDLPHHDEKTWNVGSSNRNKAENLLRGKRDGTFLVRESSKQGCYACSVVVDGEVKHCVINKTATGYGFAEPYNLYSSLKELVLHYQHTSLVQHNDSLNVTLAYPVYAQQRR
PI3Kβ, sequence (P42338 whole entry): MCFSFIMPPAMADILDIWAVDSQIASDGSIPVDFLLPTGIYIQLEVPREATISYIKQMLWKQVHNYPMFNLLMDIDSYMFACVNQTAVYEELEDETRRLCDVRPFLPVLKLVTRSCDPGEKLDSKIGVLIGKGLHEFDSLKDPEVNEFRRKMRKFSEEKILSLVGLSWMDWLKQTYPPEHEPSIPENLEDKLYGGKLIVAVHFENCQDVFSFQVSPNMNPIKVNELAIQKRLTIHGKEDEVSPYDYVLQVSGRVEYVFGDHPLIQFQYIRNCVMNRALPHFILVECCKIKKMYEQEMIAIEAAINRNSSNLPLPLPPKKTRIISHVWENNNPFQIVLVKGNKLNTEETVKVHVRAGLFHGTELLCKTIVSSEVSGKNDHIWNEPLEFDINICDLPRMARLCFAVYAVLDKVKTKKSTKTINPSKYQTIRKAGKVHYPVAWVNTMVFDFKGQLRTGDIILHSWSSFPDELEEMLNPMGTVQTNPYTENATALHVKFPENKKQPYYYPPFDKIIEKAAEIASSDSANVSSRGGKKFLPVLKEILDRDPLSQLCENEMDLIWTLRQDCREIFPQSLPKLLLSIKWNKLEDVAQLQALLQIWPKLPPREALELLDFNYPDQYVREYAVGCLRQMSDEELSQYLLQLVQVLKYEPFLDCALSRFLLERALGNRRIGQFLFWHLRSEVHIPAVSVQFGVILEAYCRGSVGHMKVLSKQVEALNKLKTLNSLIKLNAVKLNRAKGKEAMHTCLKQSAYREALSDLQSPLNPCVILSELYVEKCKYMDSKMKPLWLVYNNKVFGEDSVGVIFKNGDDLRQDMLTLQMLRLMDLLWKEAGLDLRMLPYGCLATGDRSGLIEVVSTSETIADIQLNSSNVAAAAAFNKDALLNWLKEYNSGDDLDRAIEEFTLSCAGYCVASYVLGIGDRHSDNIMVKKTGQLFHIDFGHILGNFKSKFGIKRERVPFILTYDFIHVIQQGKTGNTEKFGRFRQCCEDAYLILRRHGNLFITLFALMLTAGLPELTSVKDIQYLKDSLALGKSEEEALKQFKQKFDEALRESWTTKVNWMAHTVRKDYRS
PI3Kβ, sequence (P27986 whole entry partner): as the sequence (P27986 whole entry partner) above
T6 sequence (P10635 whole entry): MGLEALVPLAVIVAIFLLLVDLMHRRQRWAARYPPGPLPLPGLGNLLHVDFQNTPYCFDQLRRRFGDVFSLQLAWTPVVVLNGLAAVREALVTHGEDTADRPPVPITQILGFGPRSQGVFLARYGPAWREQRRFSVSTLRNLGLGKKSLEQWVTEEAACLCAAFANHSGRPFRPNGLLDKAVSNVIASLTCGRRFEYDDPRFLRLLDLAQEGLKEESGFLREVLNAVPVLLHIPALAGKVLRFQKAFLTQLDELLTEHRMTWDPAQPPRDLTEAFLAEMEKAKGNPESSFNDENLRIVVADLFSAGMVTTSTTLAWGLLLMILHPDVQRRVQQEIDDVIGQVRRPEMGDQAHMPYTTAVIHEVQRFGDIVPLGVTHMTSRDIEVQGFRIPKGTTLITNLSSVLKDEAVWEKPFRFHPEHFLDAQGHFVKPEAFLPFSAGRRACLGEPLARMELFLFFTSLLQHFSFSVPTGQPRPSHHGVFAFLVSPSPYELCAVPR
T4 sequence (P11712 whole entry): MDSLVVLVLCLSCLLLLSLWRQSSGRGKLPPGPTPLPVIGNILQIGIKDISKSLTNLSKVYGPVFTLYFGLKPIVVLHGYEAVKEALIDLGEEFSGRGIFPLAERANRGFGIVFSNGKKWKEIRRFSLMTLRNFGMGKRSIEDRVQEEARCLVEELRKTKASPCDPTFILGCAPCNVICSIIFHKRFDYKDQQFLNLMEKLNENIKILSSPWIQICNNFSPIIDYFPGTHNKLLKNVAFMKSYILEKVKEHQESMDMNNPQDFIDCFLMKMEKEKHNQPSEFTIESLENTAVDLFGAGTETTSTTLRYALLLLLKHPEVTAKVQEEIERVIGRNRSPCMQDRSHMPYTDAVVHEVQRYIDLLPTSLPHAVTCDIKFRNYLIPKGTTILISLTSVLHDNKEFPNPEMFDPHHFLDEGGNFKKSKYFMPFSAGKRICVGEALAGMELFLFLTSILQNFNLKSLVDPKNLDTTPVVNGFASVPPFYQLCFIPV

Nc1nc2cc(-c3ccc4ncc(C(=O)N5CCOCC5)n4c3)ccc2o1 [serabelisib]
selectivity for PI3Kα over other class I PI3K isoforms and mTOR (PI3Kα [1]): > 50 fold

CNCCS(=O)(=O)N1CCN(c2nc(N3CCOCC3)nc(-n3c(C(F)F)nc4c(OC)cccc43)n2)CC1 [M9]
IC50 (PI3Kγ): 90.3 ± 17.1 nM | IC50 (mTOR): 244 ± 56 nM | contribution to combined plasma AUC [2]: 27.1%

COc1cccc2c1nc(C(F)F)n2-c1nc(N2CCOCC2)nc(N2CCN(S(=O)(=O)CC[N+](C)(C)[O-])CC2)n1 [M10]
metabolite quantity in liver microsomes (relative peak area class) [3]: trace (trace (<1% relative peak areas in the total ion chromatograph)) | metabolite quantity in liver microsomes (relative peak area class) [4]: major (major (>10% relative peak areas)) | metabolite quantity in liver microsomes (relative peak area class) [5]: major (major (>10% relative peak areas)) | metabolite quantity in liver microsomes (relative peak area class) [6]: minor (minor (1-10% relative peak areas)) | metabolite quantity in liver microsomes (relative peak area class) [7]: minor (minor (1-10% relative peak areas))

COc1cccc2c1nc(C(F)F)n2-c1nc(N2CCOCC2)nc(N2CCN(S(=O)(=O)CCN)CC2)n1 [M8]
IC50 (PI3Kγ): 68 ± 18.6 nM | contribution to combined plasma AUC [2]: 0.13%

COc1cccc2c1nc(C(F)F)n2-c1nc(N2CCOCC2)nc(N2CCN(S(=O)(=O)CCN(C)C)CC2)n1 [SN32976, 2-((4-(4-(2-(difluoromethyl)-4-methoxy-1H-benzo[d]imidazol-1-yl)-6-morpholino-1,3,5-triazin-2-yl)piperazin-1-yl)sulfonyl)-N, N-dimethylethan-1-amine]
IC50 (PI3Kγ): 110 ± 41 nM | IC50 (mTOR): 194 ± 55 nM | off-target activity against PIK3C2B (PIK3C2B): off-target activity | off-target activity against PIK3C2G (PIK3C2G): off-target activity | solubility ([8]; pH 2.0): > 100000 µM | solubility ([8]; pH 7.4, mean ± SD): 11.2 µM (≈ 6.51 µg/mL) | IC50 (CYP1A2 [9]): > 25 µM | IC50 (CYP2C9): 20 µM | IC50 (CYP2C19): > 25 µM | IC50 (CYP2D6): > 25 µM | IC50 (CYP3A4 [10]): > 25 µM | CYP induction 1A2 (CYP1A2 [11]): 1.27 ± 0.01 | CYP induction 2B6 (CYP2B6): 0.31 ± 0.01 | CYP induction 3A4 (CYP3A4 [12]): 1.39 ± 0.21 | AUC [13]: 2.5 µM·h | bioavailability [13]: 33.4% | AUC [14]: 0.579 µM·h | bioavailability [14]: 8.1% | AUC [15]: 3.22 µM·h | bioavailability [15]: 35.9% | AUC ([16]; 10 mg/kg): 0.417 µM·h | Cmax ([16]; 10 mg/kg): 34.1 nM | Tmax ([16]; 10 mg/kg): 4 h | half-life ([16]; 10 mg/kg): 136 min | AUC ([16]; 30 mg/kg): 1.07 µM·h | Cmax ([16]; 30 mg/kg): 125 nM | Tmax ([16]; 30 mg/kg): 1 h | half-life ([16]; 30 mg/kg): 277 min | AUC ([16]; 100 mg/kg): 16.4 µM·h | Cmax ([16]; 100 mg/kg): 893 nM | Tmax ([16]; 100 mg/kg): 1 h | half-life ([16]; 100 mg/kg): 586 min | AUC ([16]; 300 mg/kg): 139 µM·h | Cmax ([16]; 300 mg/kg): 6810 nM | Tmax ([16]; 300 mg/kg): 4 h | contribution to combined plasma AUC [2]: 71.8%

Cc1nc(NC(=O)N2CCC[C@H]2C(N)=O)sc1-c1ccnc(C(C)(C)C(F)(F)F)c1 [alpelisib]
selectivity for PI3Kα over other class I PI3K isoforms and mTOR (PI3Kα [1]): > 50 fold

C=CS(=O)(=O)N1CCN(c2nc(N3CCOCC3)nc(-n3c(C(F)F)nc4c(OC)cccc43)n2)CC1 [M17]
IC50 (PI3Kα [17]; HTRF assay, ATP 10 μM, mean ± SEM): 6.2 ± 0.5 nM | selectivity for PI3Kα over all other PI3K isoforms and mTOR (PI3Kα [17]; ratio of biochemical IC50): 4.2 fold | IC50 (PI3Kβ): > 1000 nM | IC50 PI3Kβ (PI3Kβ): lacked activity | IC50 (PI3Kγ): 26.3 ± 2.6 nM | IC50 (PI3Kδ): 55 ± 24.1 nM | IC50 (mTOR): 74.9 ± 25.1 nM | metabolite quantity in liver microsomes (relative peak area class) [3]: major (major (>10% relative peak areas)) | metabolite quantity in liver microsomes (relative peak area class) [4]: major (major (>10% relative peak areas)) | metabolite quantity in liver microsomes (relative peak area class) [5]: major (major (>10% relative peak areas)) | metabolite quantity in liver microsomes (relative peak area class) [6]: major (major (>10% relative peak areas)) | metabolite quantity in liver microsomes (relative peak area class) [7]: major (major (>10% relative peak areas)) | contribution to combined plasma AUC [2]: 1.0% | metabolite AUC relative to parent in plasma [18]: 8.8 % of parent | metabolite AUC relative to parent in tumor [18]: 2.4 % of parent
